Consider ten molecules from patent publication US7473527B2, “Compounds promoting delivery of genes” (The UAB Research Foundation, priority 2002, dated 2009).

Holding throughout (assay type): cell-based
Experiment [1] relates to HT29 cells. Nature of the experiment: Adenovirus luciferase gene transfer into confluent HT29 cells. To be noted: for activation of adenovirus gene transfer (luciferase): 100 micromolar, procedure of Example 1 (MOI 50, assay 48 hours later), screen of 1032 NSC library compounds; for activation of adenovirus gene transfer (luciferase activity): MOI 1, 3 or 10, compound 30 nM, 300 nM, 10 uM, 30 uM or 100 uM, 48 hours. On the procedure: HT29 cells are grown in 96-well plates. The cells are seeded at near confluency, about 300,000 cells per well, and infected with adenovirus 3-4 days later. […] For screening purposes, cells are grown on plastic. […] The activity of candidate compounds may be also confirmed using polarized monolayers grown on filters. Once confluent, HT29 cells are very difficult to transduce with adenoviral constructs. Fewer than 1 in 100 cells express adenoviral transgenes at multiplicity of infection (MOI) of approximately 50. A replication deficient adenovirus encoding firefly luciferase or the EGFP at an MOI of 50 for each well of cells in low serum medium is applied for 4 hours at 37° C. Confluent HeLa cells are used as a positive control. A set of cells is incubated with virus but no gene transfer activating compound as a negative control. Test drugs are incubated along with the virus. Forty-eight hours later, the cells are assayed for luciferase by standard techniques. Luciferase is assayed using a commercially available kit (Promega) which allows quantitative measurements of adenoviral gene transfer.
(§1) FIGS. 2A and 2B show a comparison of luciferase expression (y-axis, light units) vs. MOI (x-axis) in HeLa and HT29 cells infected with adenovirus under various conditions. For these studies, cells are grown in 96-well plates. The HT29 cells are seeded at near confluency, about 300,000 cells per well, and infected with adenovirus 3-4 days later. The cells are infected with luciferase-expressing, replication-deficient adenovirus at MOIs of 1, 3 or 10 by applying the virus to wells of cells in low serum medium for 4 hours at 37° C. In addition, the cells are incubated with gene transfer activating compound 675865 at a concentration of 30 nM, 300 nM, 10 uM, 30 uM or 100 uM along with the virus. A control set of cells is incubated with virus at MOIs of 1, 3 or 10, but no gene transfer activating compound is included. Forty-eight hours later, the cells are assayed for luciferase activity by standard techniques. […] FIGS. 3A and 3B present data from these experiments in which luciferase expression (y-axis, light units) is plotted vs. compound 675865 concentration (x-axis).
as §1, with “6A” for “2A”, “6B” for “2B”, “143491” for “675865”, “7A” for “3A”, “7B” for “3B”
(§2) Luciferase activity is measured using a commercially available assay kit (Bright-Glo™, Promega) designed for high throughput screening. Briefly, the Bright-Glo™ substrate is dissolved in Bright-Glo™ assay buffer at room temperature. 50 μl of the premixed Bright-Glo™ reagent is directly added to each well of the assay plate. Luminescence is measured in a microluminometer (Harta Instrument, Gaithersburg, Md.).

The subject of the next experiment is HeLa and HT29 cells. Description: Adeno-associated virus luciferase gene transfer into HeLa and HT29 cells. To be noted: MOI 2.78, 8.33 or 22, compound 30 nM to 100 uM, 48 hours. On the procedure:
FIGS. 8A and 8B show a comparison of luciferase expression (y-axis, light units) vs. MOI (x-axis) in HeLa and HT29 cells infected with adeno-associated virus under various conditions. For these studies, cells are grown as described in Example 8. The HT29 cells are seeded at near confluency, about 300,000 cells per well, and infected with adenovirus 3-4 days later. The cells are infected with luciferase-expressing, adeno-associated virus at MOIs of 2.78, 8.33 or 22 by applying the virus to wells of cells in low serum medium for 4 hours at 37° C. In addition, the cells are incubated with gene transfer activating compound 143491 at a concentration of 30 nM, 300 nM, 10 uM, 30 uM or 100 uM along with the virus. A control set of cells is incubated with virus at MOIs of 2.78, 8.33 or 22, but no gene transfer activating compound is included. Forty-eight hours later, the cells are assayed for luciferase activity by standard techniques. Luciferase activity is enhanced in cells treated with compound 143491 compared with controls. […]
Luciferase activity is measured using a commercially available assay kit (Bright-Glo™, Promega) designed for high throughput screening. […] Luminescence is measured in a microluminometer (Harta Instrument, Gaithersburg, Md.).

The next experiment relates to Calu3 cells. Description: Adenovirus luciferase gene transfer into Calu3 cells grown on filters or plastic. To be noted: 40 μm compound; 10 MOI (FIG. 4A). The procedure:
Lung epithelial cells which form tight junctions in vitro, Calu3, are grown on filters (Corning Costar Transwell®—polyester—pore size 0.4 μm) or plastic well allowing apical and basolateral specialization to occur.
Calu3 cells grown as described in Example 9 are incubated with adenovirus at 10 MOI and various compounds at a concentration of 40 micromolar. FIG. 4B indicates luciferase activity measured under these conditions.
Calu3 cells grown as described in Example 9 are incubated with luciferase-expressing adenovirus and various gene transfer activating compounds.
as §2

Experiment [2] deals with HT29 cells. Nature of the experiment: Lentivirus luciferase gene transfer into HT29 cells. To be noted: MOI 0.002, 0.02 or 0.2, compound 30 nM to 100 uM, 48 hours. On the procedure:
FIG. 5A show a comparison of luciferase expression (y-axis, light units) vs. MOI (x-axis) in HT29 cells infected with lentivirus under various conditions. For these studies, cells are grown in 96-well plates as described in Example 8. The HT29 cells are seeded at near confluency, about 300,000 cells per well, and infected with a lentivirus vector expressing luciferase 3-4 days later. The cells are infected with lentivirus at MOIs of 0.002, 0.02 or 0.2 by applying the virus to wells of cells in low serum medium for 4 hours at 37° C. In addition, the cells are incubated with gene transfer activating compound 675865 at a concentration of 30 nM, 300 nM, 10 uM, 30 uM or 100 uM along with the virus. A control set of cells is incubated with virus at MOIs of 0.002, 0.02 or 0.2 but no gene transfer activating compound is included. Forty-eight hours later, the cells are assayed for luciferase activity by standard techniques.
FIG. 5B present data from these experiments in which luciferase expression (y-axis, light units) is plotted vs. compound 675865 concentration (x-axis).
Luciferase activity is measured using a commercially available assay kit (Bright-Glo™, Promega) designed for high throughput screening. Briefly, the Bright-Glo™ substrate is dissolved in Bright-Glo™ assay buffer at room temperature. […] Luminescence is measured in a microluminometer (Harta Instrument, Gaithersburg, Md.).

Experiment [3] has as its system HT29 cells. Nature of the experiment: Adenovirus EGFP gene transfer, fluorescence microscopy. To be noted: 100 micromolar compound, adenovirus EGFP MOI 0.1-10, 4 hours. The procedure: HT29 or HeLa cells are grown in 96-well plates. The HT29 cells are seeded at near confluency, about 300,000 cells per well, and infected with adenovirus 3-4 days later. Confluent HeLa cells are used as a positive control. […] A replication deficient adenovirus encoding the EGFP gene is applied at an MOI of 0.1-10 to wells of cells in low serum medium for 4 hours at 37° C. Gene transfer activating compounds are incubated along with the virus at concentrations of 100 micromolar. Cells are visualized with a fluorescent microscope where green fluorescence indicates EGFP expression. A set of cells is incubated with virus but no gene transfer activating compound.

For `O=C(CC(=O)c1cc(Cl)ccc1O)c1cccnc1` [NSC 73609], in the experiment with HT29 cells [1], the “activation of adenovirus gene transfer (luciferase)” value (“activation … (luciferase)” below) is reported as “activation of adenovirus gene transfer”.
`O=C(O)c1ccccc1N=Cc1ccc(N(CCCl)CCCl)cc1` [NSC 101492]: the “activation … (luciferase)” value in the experiment on HT29 cells [1] is reported as “activation of adenovirus gene transfer”.
The same measure, in the same setting: to `CCCCCCCCCCCCCC[As](=O)(O)O` [NSC 106191] belongs “activation of adenovirus gene transfer”; to `CN(C)C(=O)CCCc1ccc(N(CCCl)CCCl)cc1` [NSC 108613], “activation of adenovirus gene transfer”; to `CN(C)CCCNc1c2ccccc2nc2ccc(F)cc12.Cl` [NSC 109325], “activation of adenovirus gene transfer”.
As to `CC1=C(C)C(C#N)(C(=O)CBr)C(=N)O1` (stereo not shown) [NSC 128720], the “activation … (luciferase)” value in the experiment with HT29 cells [1] was “activation of adenovirus gene transfer”.
As to `COc1cccc2c1C(=O)c1c(O)c3c(c(O)c1C2=O)CC(O)(/C(C)=N/O)CC3OC1CC(N)C(O)C(C)O1` (stereo not shown) [NSC 143491], in the experiment on HT29 cells [1], the “activation … (luciferase)” value is “activation of adenovirus gene transfer” and the “activation of adenovirus gene transfer (luciferase activity)” value is recorded as “activation of adenovirus gene transfer”. Besides, in the experiment on HeLa and HT29 cells, the “luciferase activity compared with controls, adeno-associated virus vector” value is listed as “enhanced”.
`COc1ccc(CC2C(=O)NC(C)C(=O)N(C)C3C(=O)N(C)C(Cc4ccc(O)c(c4)Oc4ccc(cc4)C3O)C(=O)NC(C)C(=O)NC(C)C(=O)N2C)cc1` (stereo not shown) [NSC 259968]: the “activation … (luciferase)” value in the experiment on HT29 cells [1] is “activation of adenovirus gene transfer”.
Take `CN(C)CCCN=c1c2ccccc2n(C)c2[nH]c(=O)n(C)c(=O)c12` [NSC 373989]: the “activation … (luciferase)” value in the experiment with HT29 cells [1] was “activation of adenovirus gene transfer”.
For the molecule `Nc1ncnc2c(C3OC(CO)C(O)C3O)nsc12` (stereo not shown) [NSC 675865], the “luciferase activity in Calu3 cells infected with luciferase expressing adenovirus” value in the experiment with Calu3 cells is on record as “increased luciferase activity”. Moreover, in the experiment on HT29 cells [2], the “luciferase activity, lentivirus vector” value was “enhancement of luciferase activity”. Besides, in the experiment with HT29 cells [3], the “activation of adenovirus gene transfer (EGFP green fluorescence)” value is “activation of adenovirus gene transfer”. In addition, in the experiment with HT29 cells [1], the “activation … (luciferase)” value is given as “activation of adenovirus gene transfer” and the “activation of adenovirus gene transfer (luciferase activity)” value is on record as “activation of adenovirus gene transfer”.
